Tests used:
[1] = system: recombinant FAD-GDH (rAO-FAD-GDH) derived from Aspergillus oryzae; assay: Thermal stabilization effect of stabilizing agents on rAO-FAD-GDH in solution (Examples 3-6); assay type: physicochemical; settings: for thermal stabilization effect on FAD-GDH (in words): 50° C. for 15 minutes, Example 3
Protocol: Enhancement of the thermal stability referred to herein means increasing of a residual ratio (%) of the GDH enzyme kept after giving the treatment with heat at a certain temperature for a certain time period to the composition comprising the GDH enzyme. In the present invention, the activity in the sample stored at 4° C. which is nearly completely kept is made 100%, this is compared with the activity in the GDH solution after giving the treatment with heat at a certain-temperature for a certain time period, and the residual ratio of the enzyme is calculated.
In the method for measuring the activity described in the method for measuring the GDH enzyme activity described later, an activity value (a) of GDH in the solution stored at 4° C. and an activity value (b) of GDH after giving the treatment with heat at a certain temperature for a certain time period were measured, a relative value[(b)/(a)×100] when the activity value (a) was made 100 was calculated. This relative value was made the residual ratio (%). Comparing the presence with the absence of the added compound, when the residual ratio was increased by the addition of the compound, it was determined that the thermal stability was enhanced.
In the present invention, the activity of FAD-dependent GDH is measured as follows.
The reaction-reagent is made by mixing 15.6 mL of the PIPES buffer, 0.2 mL of the DCPIP solution and 4 mL of the D-glucose solution.
(§1) The reaction reagent (3 mL) is preliminarily heated at 37° C. for 5 minutes. The GDH solution (0.1 mL) is added and gently mixed, subsequently the change of absorbance at 600 nm is recorded for 5 minutes using the spectrophotometer controlled to 37° C. using water as the control, and the change of absorbance per one minute (ΔODTEST) is calculated from the linear portion of the record. The solvent in which GDH will be dissolved in place of the blinded GDH solution is added to the reagent mixture, and the change of absorbance (ΔODBLANK) per one minute is measured. The GDH activity is calculated from these values according to the following formula. One unit (U) in the GDH activity is defined as the amount of the enzyme which reduces […] DCPIP for one minute in the presence of 200 mM D-glucose. Activity (U/mL)=[−(ΔODTEST−ΔODBLANK)×3.0×dilution scale]/(16.3×0.1×1.0) In the above formula, 3.0 represents a liquid amount (mL) of the reaction reagent+the enzyme solution, 16.3 represents a millimolar molecular absorbance coefficient (cm^2/μmol) in the condition for measuring this enzyme, 0.1 represents the liquid amount of the enzyme solution (mL) and 1.0 represents a light path length (cm) of the cell.
The study was performed in accordance with the method for measuring the FAD-GDH activity in Test Example 1 described above.
First, 50 mL of an enzyme solution obtained by dissolving the recombinant FAD-GDH (rAO-FAD-GDH)-derived from Aspergillus oryzae obtained in Example 1 at about 2 U/mL in an enzyme dilution solution (50 mM potassium phosphate buffer, pH 5.5, 0.1% Triton X-100) was prepared. Two tubes in which each stabilizing agent described in Table 1 had been added at each final concentration to 0.9 mL of this enzyme solution to make the total volume 1.0 mL were prepared.
(§2) In two tubes, one tube was stored at −4° C. and another tube was treated at 50° C. for 15 minutes. Then, the FAD-GDH activity in each tube was measured. The enzyme activity in the tube stored at 4° C. was made 100, and comparing with it, the activity value after being treated at 50° C. for 15 minutes was calculated as the residual activity ratio (%).
The method was in accordance with Example 3 described above.
The methods were in accordance with Example 3 above.

[2] = system: recombinant FAD-GDH (rAT-FAD-GDH) derived from Aspergillus terreus; assay: Thermal stabilization effect of stabilizing agents on rAT-FAD-GDH in solution (Example 9); assay type: physicochemical; settings: for Residual activity ratio (%) / GLD activity value (U/ml) 50° C., 15 min: Table 10, buffer 50 mM K-PB, stabilizer at each final concentration described in Table 1; for Residual activity ratio (%): 50° C., 15 min versus 4° C.; for thermal stabilization effect on FAD-GDH (in words): rAT-FAD-GDH, 50° C. for 15 minutes, Example 9
Protocol: as §1, with “D-glucose.” for “D-glucose. Activity (U/mL)=[−(ΔODTEST−ΔODBLANK)×3.0×dilution scale]/(16.3×0.1×1.0) In the above formula, 3.0 represents a liquid amount (mL) of the reaction reagent+the enzyme solution, 16.3 represents a millimolar molecular absorbance coefficient (cm^2/μmol) in the condition for measuring this enzyme, 0.1 represents the liquid amount of the enzyme solution (mL) and 1.0 represents a light path length (cm) of the cell.”
Two tubes in which each stabilizing agent described in Table 1 had been added at each final concentration to 0.9 mL of this enzyme solution to make the total volume 1.0 mL were prepared.
as §2, with “4°” for “−4°”

[3] = stabilizer final concentration 1%, rAO-FAD-GDH about 2 U/mL, 50 mM potassium phosphate buffer pH 5.5, 0.1% Triton X-100, 4° C. sample = 100
[4] = stabilizer final concentration 0.10%, rAO-FAD-GDH, pH 5.5

Compound	thermal stabilization effect on FAD-GDH (in words) ([1]; rAO-FAD-GDH)	Residual activity ratio (%) after treatment at 50° C., 15 min [1, 3] [%]	Residual activity ratio (%) [2] [%]	GLD activity value (U/ml) 50° C., 15 min [2] [U/ml]	thermal stabilization effect on FAD-GDH (in words) [2]	Residual activity ratio (%) after treatment at 50° C., 15 min [1, 4] [%]	Residual activity ratio (%) after treatment at 50° C., 15 min ([1]; stabilizer final concentration 0.25%, rAO-FAD-GDH, pH 5.5) [%]	Residual activity ratio (%) after treatment at 50° C., 15 min ([1]; stabilizer final concentration 0.20%, rAO-FAD-GDH, pH 5.5) [%]
OC[C@H]1O[C@@](CO)(O[C@H]2O[C@H](CO)[C@@H](O)[C@H](O)[C@H]2O)[C@@H](O[C@H]2O[C@H](CO)[C@@H](O)[C@H](O)[C@H]2O)[C@@H]1O [D-(+)-melezitose]	high effect	44.7	6.9	0.193	high effect			
N[C@H](CCC(=O)O)C(=O)O [D-glutamic acid]	high effect		5.6	0.149	high effect	23.2		
NC(=O)CC[C@H](N)C(=O)O [L-glutamine]			1.7	0.046			22.6	
O=C(CO)[C@@H](O)[C@H](O)[C@H](O)CO [D-(−)-fructose]	high effect	25.9	2.7	0.075	high effect			
O=C[C@H](O)[C@@H](O)[C@H](O)CO [D-(+)-xylose]	high effect	68.5	18.5	0.516	high effect			
O=C([O-])[C@H](O)[C@@H](O)[C@H](O)[C@H](O)CO.[Na+] [sodium gluconate]	high effect	33.5	3.9	0.111	high effect			
CC(C)C[C@H](N)C(=O)O [L-leucine]			1.4	0.038		22.2		
Inulin		24.7	1.8	0.053				
O=S(=O)([O-])[O-].[Na+].[Na+] [Sodium sulfate]	high effect				high effect			
Cl.NCCCC[C@H](N)C(=O)O [L-lysine hydrochloride]	high effect	23.4	3.5	0.093	high effect			
N.N.O=S(=O)(O)O [Ammonium sulfate]	high effect				high effect			
NC(=O)C[C@H](N)C(=O)O [L-asparagine]			1.6	0.044				22.8
N[C@@H](Cc1ccccc1)C(=O)O [phenylalanine]	high effect				high effect			
N=C(N)NCCC[C@H](N)C(=O)O [L-arginine]		1.1	0.1	0.001				
O=C(O)CCCC(=O)O [Glutaric acid]	high effect				high effect			
O=CC[C@@H](O)[C@H](O)[C@H](O)CO [2-deoxy-D-glucose]	high effect	69.6	36.9	1.032	high effect			
O=C[C@@H](O)[C@H](O)[C@H](O)CO [D-(−)-arabinose]	high effect	23.0	2.5	0.069	high effect			
C[C@H](N)C(=O)O [D-a-alanine]	high effect	27.1	3.2	0.09	high effect			
O=C(O)C1OC(O)C(O)C(O)C1O [D-a-galacturonic acid]		0.0	0.2	0.004				
